Experimental data reported in ChEMBL document CHEMBL6074642, “Natural and Bioinspired Lipidic Alkynylcarbinols as Leishmanicidal, Antiplasmodial, Trypanocidal, Fungicidal, Antibacterial, and Antimycobacterial Agents” (J Nat Prod, 2024).

Tested on: Mycobacterium tuberculosis
Assay: Antibacterial activity against multi-drug resistant Mycobacterium tuberculosis assessed as reduction in microbial growth
Format: functional

Compound: C=C[C@@H](O)C#CC#C[C@@H](O)/C=C\CCCCCCC [FALCARINDIOL]
- MIC: 32 µg/mL
